US8471005B2 (Cephalon, Inc., priority 2008, dated 2013)

What was measured:
JAK2 = target: T1, JAK2 (Homo sapiens, UniProt O60674); assay: Recombinant Human JAK2 Kinase Assay (TRF); type: biochemical; settings: JAK2 Kinase Inhibition; read-out: JAK2 Potency
T1 construct: host or cells: baculovirus expression system
Outline: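 Europium-labelled PY100 antibody reported tyrosine phosphorylation of a Neutravidin-captured biotinyl 15-mer peptide by JAK2 (baculovirus-expressed, 15 ng/ml). Conditions: 20 mM HEPES pH 7.2, 0.2 μM ATP, 1 mM MnCl2, 0.1% BSA, DMSO 2.5% final, 20 min at room temperature.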

ALK = target: T2, ALK (Homo sapiens, UniProt Q9UM73); assay: ALK Kinase Assay (ELISA/TRF, PLC-γ substrate); type: biochemical; settings: ALK Kinase Inhibition; read-out: ALK Potency
T2 construct: host or cells: baculovirus expression system
Outline: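 Wells were coated with 10 μg/mL phospholipase C-γ substrate in TBS, and the reaction was started by adding 30 ng/ml ALK enzyme and run at 37° C for 15 minutes. Phosphorylated product was detected with Eu-N1-labeled PT66 antibody, and IC50 values came from sigmoidal variable-slope fits of percent inhibition against log concentration.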

T2 sequence (Q9UM73 19-1620): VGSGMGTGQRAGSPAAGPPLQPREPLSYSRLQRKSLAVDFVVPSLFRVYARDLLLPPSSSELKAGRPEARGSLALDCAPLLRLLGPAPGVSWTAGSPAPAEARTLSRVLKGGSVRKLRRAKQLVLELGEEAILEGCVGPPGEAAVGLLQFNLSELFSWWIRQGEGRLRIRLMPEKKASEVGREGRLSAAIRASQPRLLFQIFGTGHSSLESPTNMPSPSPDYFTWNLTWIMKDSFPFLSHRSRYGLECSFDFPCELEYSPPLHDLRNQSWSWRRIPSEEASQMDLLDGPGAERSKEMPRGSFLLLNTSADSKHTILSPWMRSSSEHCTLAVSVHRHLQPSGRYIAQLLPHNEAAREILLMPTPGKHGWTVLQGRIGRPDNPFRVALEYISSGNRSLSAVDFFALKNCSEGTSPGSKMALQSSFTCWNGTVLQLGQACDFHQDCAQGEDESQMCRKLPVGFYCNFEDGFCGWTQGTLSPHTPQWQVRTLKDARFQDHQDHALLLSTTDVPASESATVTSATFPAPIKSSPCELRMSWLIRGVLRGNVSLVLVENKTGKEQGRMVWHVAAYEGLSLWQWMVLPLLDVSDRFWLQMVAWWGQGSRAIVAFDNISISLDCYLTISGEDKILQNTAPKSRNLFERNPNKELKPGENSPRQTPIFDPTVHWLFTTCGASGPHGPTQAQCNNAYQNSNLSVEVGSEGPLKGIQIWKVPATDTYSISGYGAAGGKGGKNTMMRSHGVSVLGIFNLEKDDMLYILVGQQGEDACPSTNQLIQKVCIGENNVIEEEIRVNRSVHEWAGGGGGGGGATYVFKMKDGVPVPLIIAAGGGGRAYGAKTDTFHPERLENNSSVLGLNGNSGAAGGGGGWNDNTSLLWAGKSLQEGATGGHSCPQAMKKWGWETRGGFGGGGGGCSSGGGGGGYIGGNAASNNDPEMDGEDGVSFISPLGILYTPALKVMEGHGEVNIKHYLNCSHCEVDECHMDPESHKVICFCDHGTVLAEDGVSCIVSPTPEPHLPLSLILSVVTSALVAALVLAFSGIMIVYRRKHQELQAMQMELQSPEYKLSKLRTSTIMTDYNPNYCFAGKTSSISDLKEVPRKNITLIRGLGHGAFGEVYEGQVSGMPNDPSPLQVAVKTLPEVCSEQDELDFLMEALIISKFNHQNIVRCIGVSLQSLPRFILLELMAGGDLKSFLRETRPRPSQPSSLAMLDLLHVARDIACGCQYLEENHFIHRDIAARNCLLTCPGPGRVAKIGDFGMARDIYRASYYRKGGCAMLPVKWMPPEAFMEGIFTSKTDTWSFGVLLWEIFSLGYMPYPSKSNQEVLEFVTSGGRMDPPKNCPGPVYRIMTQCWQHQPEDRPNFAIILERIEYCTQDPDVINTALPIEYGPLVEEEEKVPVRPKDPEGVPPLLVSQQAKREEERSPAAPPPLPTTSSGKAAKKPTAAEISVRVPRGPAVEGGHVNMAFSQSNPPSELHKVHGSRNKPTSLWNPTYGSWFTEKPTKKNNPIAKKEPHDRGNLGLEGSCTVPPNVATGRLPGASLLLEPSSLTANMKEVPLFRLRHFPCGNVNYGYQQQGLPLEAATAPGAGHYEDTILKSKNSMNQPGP
T1 sequence (O60674 whole entry): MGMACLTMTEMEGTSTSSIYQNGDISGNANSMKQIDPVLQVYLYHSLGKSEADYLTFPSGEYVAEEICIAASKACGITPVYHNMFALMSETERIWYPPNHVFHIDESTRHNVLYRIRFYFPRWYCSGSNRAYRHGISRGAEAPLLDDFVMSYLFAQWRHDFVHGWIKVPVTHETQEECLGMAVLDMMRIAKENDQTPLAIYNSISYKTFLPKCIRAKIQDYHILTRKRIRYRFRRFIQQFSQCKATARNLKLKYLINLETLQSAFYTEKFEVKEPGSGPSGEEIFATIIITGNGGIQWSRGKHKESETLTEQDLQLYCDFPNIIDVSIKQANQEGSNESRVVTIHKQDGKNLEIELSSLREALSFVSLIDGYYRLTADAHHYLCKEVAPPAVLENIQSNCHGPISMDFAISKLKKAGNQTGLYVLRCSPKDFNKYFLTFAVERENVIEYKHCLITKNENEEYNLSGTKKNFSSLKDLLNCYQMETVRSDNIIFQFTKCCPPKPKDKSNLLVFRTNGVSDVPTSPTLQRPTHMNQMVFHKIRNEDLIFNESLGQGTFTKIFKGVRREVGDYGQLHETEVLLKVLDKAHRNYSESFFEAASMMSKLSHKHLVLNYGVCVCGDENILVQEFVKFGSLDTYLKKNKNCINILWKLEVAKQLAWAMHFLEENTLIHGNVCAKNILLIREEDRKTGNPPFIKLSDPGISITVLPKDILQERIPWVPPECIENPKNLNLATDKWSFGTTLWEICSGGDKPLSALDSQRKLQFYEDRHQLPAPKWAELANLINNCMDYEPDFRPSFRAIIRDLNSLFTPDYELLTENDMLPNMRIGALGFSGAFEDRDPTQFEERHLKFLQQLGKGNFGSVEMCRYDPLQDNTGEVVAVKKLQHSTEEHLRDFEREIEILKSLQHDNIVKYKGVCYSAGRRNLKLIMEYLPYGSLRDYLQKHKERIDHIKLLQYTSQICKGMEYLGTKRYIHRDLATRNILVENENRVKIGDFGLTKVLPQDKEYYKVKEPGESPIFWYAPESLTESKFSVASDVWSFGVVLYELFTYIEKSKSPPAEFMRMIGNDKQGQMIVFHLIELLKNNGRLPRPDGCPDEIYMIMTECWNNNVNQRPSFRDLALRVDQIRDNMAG

## CC(=O)Nc1cc(Nc2ncc3ccc(-c4cccnc4)n3n2)ccc1C(C)(C)C [Example 308, N-[2-tert-Butyl-5-(7-pyridin-3-yl-pyrrolo[2,1-f][1,2,4]triazin-2-ylamino)-phenyl]-acetamide]
JAK2
  IC50: < 100 nM
ALK
  IC50: 100 to 1000 nM

## c1cncc(-c2ccc3cnc(Nc4cccc(N5CCOCC5)c4)nn23)c1 [Example 309, (3-Morpholin-4-yl-phenyl)-(7-pyridin-3-yl-pyrrolo[2,1-f][1,2,4]triazin-2-yl)-amine]
JAK2
  IC50: < 100 nM
ALK
  IC50: 1000 to 10000 nM

## COc1ccccc1-c1ccc2cnc(Nc3ccc(N4CCC(N5CCN(C)CC5)CC4)cc3)nn12 [Example 310, [7-(2-Methoxy-phenyl)-pyrrolo[2,1-f][1,2,4]triazin-2-yl]-{4-[4-(4-methyl-piperazin-1-yl)-piperidin-1-yl]-phenyl}-amine]
JAK2
  IC50: < 100 nM
ALK
  IC50: < 100 nM

## COc1ccc(Cl)cc1-c1ccc2cnc(Nc3ccc(N4CCC(N5CCN(C)CC5)CC4)cc3)nn12 [Example 311, [7-(5-Chloro-2-methoxy-phenyl)-pyrrolo[2,1-f][1,2,4]triazin-2-yl]-{4-[4-(4-methyl-piperazin-1-yl)-piperidin-1-yl]-phenyl}-amine]
JAK2
  IC50: < 100 nM
ALK
  IC50: < 100 nM

## CN1CCN(C2CCN(c3ccc(Nc4ncc5ccc(-c6cccc(Cl)c6)n5n4)cc3)CC2)CC1 [Example 312, [7-(3-Chloro-phenyl)-pyrrolo[2,1-f][1,2,4]triazin-2-yl]-{4-[4-(4-methyl-piperazin-1-yl)-piperidin-1-yl]-phenyl}-amine]
JAK2
  IC50: < 100 nM
ALK
  IC50: < 100 nM

## CN1CCN(C2CCN(c3ccc(Nc4ncc5ccc(-c6cccnc6)n5n4)cc3)CC2)CC1 [Example 313, {4-[4-(4-Methyl-piperazin-1-yl)-piperidin-1-yl]-phenyl}-(7-pyridin-3-yl-pyrrolo[2,1-f][1,2,4]triazin-2-yl)-amine]
JAK2
  IC50: < 100 nM
ALK
  IC50: 100 to 1000 nM

## COc1ccc(Cl)cc1-c1ccc2cnc(Nc3ccc(C(=O)N4CCOCC4)cc3)nn12 [Example 315, {4-[7-(5-Chloro-2-methoxy-phenyl)-pyrrolo[2,1-f][1,2,4]triazin-2-ylamino]-phenyl}-morpholin-4-yl-methanone]
JAK2
  IC50: < 100 nM
ALK
  IC50: 100 to 1000 nM

## O=C(c1ccc(Nc2ncc3ccc(-c4cccc(Cl)c4)n3n2)cc1)N1CCOCC1 [Example 316, {4-[7-(3-Chloro-phenyl)-pyrrolo[2,1-f][1,2,4]triazin-2-ylamino]-phenyl}-morpholin-4-yl-methanone]
JAK2
  IC50: < 100 nM
ALK
  IC50: 100 to 1000 nM

## O=C(c1ccc(Nc2ncc3ccc(-c4cccnc4)n3n2)cc1)N1CCOCC1 [Example 317, Morpholin-4-yl-[4-(7-pyridin-3-yl-pyrrolo[2,1-f][1,2,4]triazin-2-ylamino)-phenyl]-methanone]
JAK2
  IC50: < 100 nM
ALK
  IC50: 1000 to 10000 nM

## COc1ccccc1-c1ccc2cnc(Nc3ccc(C(=O)N4CCN(C)CC4)cc3)nn12 [Example 318, {4-[7-(2-Methoxy-phenyl)-pyrrolo[2,1-f][1,2,4]triazin-2-ylamino]-phenyl}-(4-methyl-piperazin-1-yl)-methanone]
JAK2
  IC50: < 100 nM
ALK
  IC50: 100 to 1000 nM

## COc1ccc(Cl)cc1-c1ccc2cnc(Nc3ccc(C(=O)N4CCN(C)CC4)cc3)nn12 [Example 319, {4-[7-(5-Chloro-2-methoxy-phenyl)-pyrrolo[2,1-f][1,2,4]triazin-2-ylamino]-phenyl}-(4-methyl-piperazin-1-yl)-methanone]
JAK2
  IC50: < 100 nM
ALK
  IC50: 100 to 1000 nM

## CN1CCN(C(=O)c2ccc(Nc3ncc4ccc(-c5cccc(Cl)c5)n4n3)cc2)CC1 [Example 320, {4-[7-(3-Chloro-phenyl)-pyrrolo[2,1-f][1,2,4]triazin-2-ylamino]-phenyl}-(4-methyl-piperazin-1-yl)-methanone]
JAK2
  IC50: < 100 nM
ALK
  IC50: 100 to 1000 nM

## CN1CCN(C(=O)c2ccc(Nc3ncc4ccc(-c5cccnc5)n4n3)cc2)CC1 [Example 321, (4-Methyl-piperazin-1-yl)-[4-(7-pyridin-3-yl-pyrrolo[2,1-f][1,2,4]triazin-2-ylamino)-phenyl]-methanone]
JAK2
  IC50: < 100 nM
ALK
  IC50: 100 to 1000 nM

## COc1ccc(Cl)cc1-c1ccc2cnc(-n3cnc4cnccc43)nn12 [Example 323, 1-[7-(5-Chloro-2-methoxy-phenyl)-pyrrolo[2,1-f][1,2,4]triazin-2-yl]-1H-imidazo[4,5-c]pyridine]
JAK2
  IC50: 100 to 1000 nM
ALK
  IC50: 1000 to 10000 nM

## Clc1cccc(-c2ccc3cnc(-n4cnc5cnccc54)nn23)c1 [Example 324, 1-[7-(3-Chloro-phenyl)-pyrrolo[2,1-f][1,2,4]triazin-2-yl]-1H-imidazo[4,5-c]pyridine]
JAK2
  IC50: 1000 to 10000 nM
ALK
  IC50: 1000 to 10000 nM

## c1cncc(-c2ccc3cnc(-n4cnc5cnccc54)nn23)c1 [Example 325, 1-(7-Pyridin-3-yl-pyrrolo[2,1-f][1,2,4]triazin-2-yl)-1H-imidazo[4,5-c]pyridine]
JAK2
  IC50: 1000 to 10000 nM
ALK
  IC50: 1000 to 10000 nM

## CC(=O)Nc1cc(Nc2ncc3ccc(-c4ccc(S(C)(=O)=O)cc4)n3n2)ccc1C(C)(C)C [Example 326, N-{2-tert-Butyl-5-[7-(4-methanesulfonyl-phenyl)-pyrrolo[2,1-f][1,2,4]triazin-2-ylamino]-phenyl}-acetamide]
JAK2
  IC50: < 100 nM
ALK
  IC50: > 10000 nM

## COc1ccccc1-c1ccc2cnc(Nc3cccc(C(=O)N4CCOCC4)c3)nn12 [Example 327, {3-[7-(2-Methoxy-phenyl)-pyrrolo[2,1-f][1,2,4]triazin-2-ylamino]-phenyl}-morpholin-4-yl-methanone]
JAK2
  IC50: < 100 nM
ALK
  IC50: 1000 to 10000 nM

## COc1ccc(Cl)cc1-c1ccc2cnc(Nc3cccc(C(=O)N4CCOCC4)c3)nn12 [Example 328, {3-[7-(5-Chloro-2-methoxy-phenyl)-pyrrolo[2,1-f][1,2,4]triazin-2-ylamino]-phenyl}-morpholin-4-yl-methanone]
JAK2
  IC50: < 100 nM
ALK
  IC50: 100 to 1000 nM

## O=C(c1cccc(Nc2ncc3ccc(-c4cccc(Cl)c4)n3n2)c1)N1CCOCC1 [Example 329, {3-[7-(3-Chloro-phenyl)-pyrrolo[2,1-f][1,2,4]triazin-2-ylamino]-phenyl}-morpholin-4-yl-methanone]
JAK2
  IC50: < 100 nM
ALK
  IC50: 100 to 1000 nM

## CS(=O)(=O)c1ccc(-c2ccc3cnc(-n4cnc5cnccc54)nn23)cc1 [Example 330, 1-[7-(4-Methanesulfonyl-phenyl)-pyrrolo[2,1-f][1,2,4]triazin-2-yl]-1H-imidazo[4,5-c]pyridine]
JAK2
  IC50: 1000 to 10000 nM
ALK
  IC50: 1000 to 10000 nM

## Oc1ccc(-c2ccc3cnc(Nc4ccc(N5CCOCC5)cc4)nn23)cn1 [Example 331, 5-[2-(4-Morpholin-4-yl-phenylamino)-pyrrolo[2,1-f][1,2,4]triazin-7-yl]-pyridin-2-ol]
JAK2
  IC50: < 100 nM
ALK
  IC50: 1000 to 10000 nM

## Oc1ccc(-c2ccc3cnc(Nc4cccc(N5CCOCC5)c4)nn23)cn1 [Example 332, 5-[2-(3-Morpholin-4-yl-phenylamino)-pyrrolo[2,1-f][1,2,4]triazin-7-yl]-pyridin-2-ol]
JAK2
  IC50: > 10000 nM
ALK
  IC50: > 10000 nM

## COc1ccccc1-c1ccc2cnc(Nc3ccc(N4CCC(N5CCOCC5)CC4)cc3)nn12 [Example 334, [7-(2-Methoxy-phenyl)-pyrrolo[2,1-f][1,2,4]triazin-2-yl]-[4-(4-morpholin-4-yl-piperidin-1-yl)-phenyl]-amine]
JAK2
  IC50: < 100 nM
ALK
  IC50: < 100 nM

## COc1ccc(Cl)cc1-c1ccc2cnc(Nc3ccc(N4CCC(N5CCOCC5)CC4)cc3)nn12 [Example 335, [7-(5-Chloro-2-methoxy-phenyl)-pyrrolo[2,1-f][1,2,4]triazin-2-yl]-[4-(4-morpholin-4-yl-piperidin-1-yl)-phenyl]-amine]
JAK2
  IC50: < 100 nM
ALK
  IC50: 100 to 1000 nM

## Clc1cccc(-c2ccc3cnc(Nc4ccc(N5CCC(N6CCOCC6)CC5)cc4)nn23)c1 [Example 336, [7-(3-Chloro-phenyl)-pyrrolo[2,1-f][1,2,4]triazin-2-yl]-[4-(4-morpholin-4-yl-piperidin-1-yl)-phenyl]-amine]
JAK2
  IC50: < 100 nM
ALK
  IC50: 100 to 1000 nM

## c1cncc(-c2ccc3cnc(Nc4ccc(N5CCC(N6CCOCC6)CC5)cc4)nn23)c1 [Example 337, [4-(4-Morpholin-4-yl-piperidin-1-yl)-phenyl]-(7-pyridin-3-yl-pyrrolo[2,1-f][1,2,4]triazin-2-yl)-amine]
JAK2
  IC50: < 100 nM
ALK
  IC50: 100 to 1000 nM

## COc1ccccc1-c1ccc2cnc(Nc3cccc(C(=O)N4CCN(C)CC4)c3)nn12 [Example 338, {3-[7-(2-Methoxy-phenyl)-pyrrolo[2,1-f][1,2,4]triazin-2-ylamino]-phenyl}-(4-methyl-piperazin-1-yl)-methanone]
JAK2
  IC50: < 100 nM
ALK
  IC50: 100 to 1000 nM

## COc1ccc(Cl)cc1-c1ccc2cnc(Nc3cccc(C(=O)N4CCN(C)CC4)c3)nn12 [Example 339, {3-[7-(5-Chloro-2-methoxy-phenyl)-pyrrolo[2,1-f][1,2,4]triazin-2-ylamino]-phenyl}-(4-methyl-piperazin-1-yl)-methanone]
JAK2
  IC50: < 100 nM
ALK
  IC50: 100 to 1000 nM

## CN1CCN(C(=O)c2cccc(Nc3ncc4ccc(-c5cccc(Cl)c5)n4n3)c2)CC1 [Example 340, {3-[7-(3-Chloro-phenyl)-pyrrolo[2,1-f][1,2,4]triazin-2-ylamino]-phenyl}-(4-methyl-piperazin-1-yl)-methanone]
JAK2
  IC50: < 100 nM
ALK
  IC50: 100 to 1000 nM

## CN1CCN(C(=O)c2cccc(Nc3ncc4ccc(-c5cccnc5)n4n3)c2)CC1 [Example 341, (4-Methyl-piperazin-1-yl)-[3-(7-pyridin-3-yl-pyrrolo[2,1-f][1,2,4]triazin-2-ylamino)-phenyl]-methanone]
JAK2
  IC50: < 100 nM
ALK
  IC50: 1000 to 10000 nM
